Experimental findings from US20050090471A1, “Inhibitors of cyclin-dependent kinases, compositions and uses related thereto” (GPC Biotech, Inc, priority 2001, published 2005) are described below.

Assay [1] deals with NCI panel of 60 cell lines. The assay is described as follows: NCI panel of human tumor cell lines (SRB assay), MG-MID. Particulars: 48 hours incubation with compound. The assay is classed as cell-based. The source says: (§1) The evaluation of compounds at the National Cancer Institute in their panel of 60 cell lines provides a wealth of information regarding efficacy in a wide range of tumor types and genetic backgrounds. Included within this panel are cell lines derived from leukemia, melanoma and cancers of the lung, colon, brain, ovary, breast, prostate and kidney. Use of this panel provides a measure of the efficacy of compounds in cells with alterations in many genes that are associated with neoplastic transformation including p53 and Her2/Neu as well as those involved in metabolism and those which confer multi-drug resistance. The data generated in these cell lines with the protocol described below can be used to evaluate the activity of compounds.
(§2) Cells were grown in RPMI-1640 10% FCS and plated in 96 well micro-titer plates at densities ranging from 5,000 to 40,000 cells/well. The plates were incubated for 24 hours at 37° C., 5% CO2 for 24 hours. Media containing twice the desired final concentration of the compound (5 doses spanning 4 logs) was prepared and 100 μl was added to each well containing 100 μl media plus cells to yield the desired final concentration. The plates were then incubated for an additional 48 hours.
(§3) The effect of the compound on cellular viability was determined with the Sulforhodamine B (SRB) assay which measures total protein. Cells were fixed with cold TCA to a fmal concentration of 10% and incubated at 4° C. for 60 minutes. The supernatant was discarded and the plates were washed five times with water and air-dried. SRB solution at […] in 1% acetic acid was added to each well and the plates were incubated for 10 minutes at room temperature. The plates were washed five times with 1% acetic acid and air-dried. The bound stain was solubilized with 10 mM trizma base and the absorbance was read on a plate reader at […].
A general note: Sulforhodamine B stains cellular protein and so reports cell mass.

Assay [2] relates to ADR-res. The assay is described as follows: NCI panel (SRB assay), ADR-res cell line. The assay is classed as cell-based, human. Particulars: 48 hours incubation with compound, unit not given.
Source text: as §1, §2, §3

Assay [3] relates to HCT-116 cells. The assay is described as follows: BrdU incorporation into DNA (flow cytometry). It counts as cell-based, human. Also noted: unit not given here. The settings on record: inhibition of BrdU incorporation, unit not given; for BrdU 24: analysis at 24 hours; for BrdU 48: analysis at 48 hours; for BrdU 72: analysis at 72 hours. How it is done: This method measured the percentage of cells that incorporated the nucleotide analog, BrdU, into newly synthesized DNA as cells progressed through the S phase of the cell cycle. The inhibition of BrdU incorporation was used as a measure of a Cdlc inhibitor's effect on S phase progression and DNA replication.
3 sets of HCT-116 cells (100,000 cells/set) were plated in T25 flasks and incubated with a test compound as above. Analysis was done at 24, 48, and 72 hours. BrdU was added to each T-25 flask from a stock of 10 mg/ml to a final concentration of 10 μM and the cells were incubated for an additional 16-18 hours at 37° C. The cells were then prepared for flow cytometric analysis according to manufacturer's protocol (BrdU Flow kit, BD-Pharmingen catalogue # 2354KK) as follows:
Cells were harvested (adherent and floating) from the T25 flasks directly into Falcon 12×75 flow cytometric tubes as above followed by fixation and permeabilization with the addition of 100 μl Cytofix/Cytoperm buffer (30 minutes, room temperature). The cells were then washed with 1 ml of Perm Wash buffer and the cell pellets were resuspended in 100 μl Cytoperm Plus buffer and incubated on ice for 10 minutes. The cells were then washed again with 1 ml of Perm Wash buffer and the fixation was repeated in 100 μl of Cytofix/Cyto Perm buffer for 10 minutes at room temperature. The cells were then washed with 1 ml of Perm Wash buffer. The cells were next treated for one hour at 37° C. with 100 μl DNase to expose incorporated BrdU followed by another wash step with 1 ml of Perm Wash buffer. […] Cells were protected from light and incubated at room temperature for 20-30 minutes. Following the incubation, the cells were washed with 1 ml of Perrn Wash buffer, resuspended in 300 μl of 2% FBS in PBS, and analyzed on the flow cytometer.
(In general: Uptake of a labelled nucleoside into DNA is a usual measure of proliferation.)

In assay [4] the test system is arrested HCT-116 cells. The assay is described as follows: Arrested cell assay (serum starvation), HCT-116. The assay is classed as cell-based, human. Set-up: unit not given here. Particulars: serum-starved arrested cells; unit not given. How it is done:
(§4) Cyclin-dependent kinase (Cdk) activity is required to promote the progression of cells through distinct phases of the cell division cycle. The proliferation of normal, non-transformed, cells in culture requires the presence of growth factors, the removal of which, through serum deprivation, leads to a loss of Cdlc activity and consequent exit from the cell cycle as cells enter the quiescent phase, Go.
HCT-116 cells were plated in triplicate for each compound concentration to be tested in RPMI 1640 media containing 10% fetal calf serum at a density of either 200 or 2,000 cells per well in 24 well dishes, and incubated overnight at 37° C., 5% CO2. The media from the plate containing 2,000 cells per well was removed, cells were washed once with serum free media and 1 ml of serum free media was placed on cells. Tle plates containing cells both in the presence and absence of serum were incubated for 6 additional days.
(§5) To ensure that the cells had indeed exited the cell cyde upon serum withdrawal, the percentage of BrdU positive cells, indicative of those progressing through S phase, was determined in each experiment. For the purpose of this experiment, cellular viability was evaluated simultaneously with the use of SNARF-1, a fluorescent substrate of intracellular esterases which are only active in viable cells. Together, the evaluation of BrdU incorporation and SNARF-1 cleavage by flow cytometry provided an assessment of the viability of arrested cells on a single cell basis. For this analysis, the cells were stained with SNARF-1 as follows and then prepared for determination of BrdU incorporation as described above.
(§6) HCT-116 and IMR90 cells were plated at the density described below in T25 flasks in serum-containing media (RPMI-1640 or MEM-a with 10% FCS, respectively). After 24 hours of growth, the media was removed and, after washing the cells, replaced with serum-free media. • HCT-116+FCS 5,000 cells • HCT-116−FCS 100,000 cells • IMR90+FCS 100,000 cells • IMR90−FCS 200,000 cells
(§7) The IMR90 cells were grown for an additional 3 days and the HCT-116 cells were grown for an additional 6 days before pulsing with BrdU. A 50 μg aliquot of SNARF-1 (Molecular Probes catalog #C1272) was dissolved in 50 μl DMSO at room temperature for 10 minutes and then diluted into 10 ml PBS. The SNARF-1 was further diluted 1:64,000 before 200 μl was added to each tube of cells which had been cultured in the presence or absence of serum and pulsed with BrdU for 20 hours. The cells were incubated at 37° C. for 30 minutes and then washed with 3 ml of PBS.
(§8) These cells were then fixed and prepared for the measurement of BrdU incorporation as described above. The percentage of viable (FL-2) and BrdU positive (FL-1) cells was determined on a FACScan flow cytometer.

Assay [5] concerns arrested IMR90 cells. The assay is described as follows: Arrested cell assay (serum starvation), IMR90. It counts as cell-based, human. Also noted: unit not given here. The settings on record: serum-starved arrested cells; unit not given. How it is done:
as §4
IMR90 cells were plated in triplicate for each compound concentration to be tested in MEM-α media containing 10% fetal calf serum at a density of either 2,000 or 20,000 cells per well in 24-well dishes and incubated overnight at 37° C., 5% CO2. The media was removed from the 20,000 cell-per-well dish, cells were washed once with serum-free media, and serum-fiee media was placed on cells. The plates containing cells both in the presence and absence of serum were incubated for 3 additional days.
as §5, §6, §7, §8

The structures appear in SMILES notation.

For the compound `CC(C)c1nn(-c2c(Cl)cccc2Cl)c2nc(Cc3ccc(O)c(CN4CCN(C(C)C)CC4)c3)[nH]c(=O)c12.Cl.Cl` [Compound C], the “NCI panel MG-MID” value in assay [1] is less than 0.1 µM. The “NCI panel ADR-res” value in assay [2] is recorded as less than 0.1. For the same compound, in assay [3], the “BrdU 24” value was less than 0.1, the “BrdU 48” value is listed as less than 0.1 and the “BrdU 72” value is less than 1. For the same compound, the “Arrested cell HCT” value in assay [4] is on record as less than 0.01. In addition, the “Arrested cell IMR90” value in assay [5] is reported as greater than 1.0.

Take `Cl.Cl.Cl.O=C(Nc1cccc2c1C(=O)c1c-2n[nH]c1-c1ccc(OCCN2CCCC2)cc1)NN1CCOCC1` [Compound I]: in assay [1], the “NCI panel MG-MID” value was less than 0.1 µM. The “NCI panel ADR-res” value in assay [2] was less than 1. For the same compound, in assay [3], the “BrdU 24” value is given as less than 0.01, the “BrdU 48” value is reported as less than 0.1 and the “BrdU 72” value is listed as less than 0.1. Also, the “Arrested cell HCT” value in assay [4] is recorded as less than 0.1. The “Arrested cell IMR90” value in assay [5] is listed as greater than 1.0.

For `CC(C)N1CCN(CCOc2ccc(-c3[nH]nc4c3C(=O)c3c(NC(=O)NN5CCOCC5)cccc3-4)cc2)CC1.Cl.Cl.Cl` [E], the “NCI panel MG-MID” value in assay [1] is less than 0.1 µM. For the same compound, the “NCI panel ADR-res” value in assay [2] was less than 1. Further, in assay [3], the “BrdU 24” value is recorded as less than 0.01, the “BrdU 48” value is listed as less than 0.1 and the “BrdU 72” value was less than 0.1. Besides, in assay [4], the “Arrested cell HCT” value is given as less than 0.1. Besides, the “Arrested cell IMR90” value in assay [5] is listed as greater than 0.1.

`CN1CCN(NC(=O)Nc2cccc3c2C(=O)c2c-3n[nH]c2-c2ccc(OCCN3CCCC3)cc2)CC1.Cl.Cl.Cl` [F]: the “NCI panel MG-MID” value in assay [1] was less than 0.1 µM. Besides, the “NCI panel ADR-res” value in assay [2] is reported as less than 1. In addition, in assay [3], the “BrdU 48” value is recorded as less than 0.1 and the “BrdU 72” value is reported as less than 1. In addition, in assay [4], the “Arrested cell HCT” value was less than 0.1. In addition, the “Arrested cell IMR90” value in assay [5] was greater than 1.0.

Take `CCCN(CCOc1ccc(-c2[nH]nc3c2C(=O)c2c(NC(=O)NN4CCOCC4)cccc2-3)cc1)CC1CC1.Cl.Cl.Cl` [G]: the “NCI panel MG-MID” value in assay [1] is less than 0.1 µM. Besides, in assay [2], the “NCI panel ADR-res” value is reported as less than 1. In assay [3], the “BrdU 24” value was less than 0.01, the “BrdU 48” value is on record as less than 0.1 and the “BrdU 72” value is listed as less than 0.1. Also, in assay [4], the “Arrested cell HCT” value was less than 0.1. Besides, the “Arrested cell IMR90” value in assay [5] is greater than 0.1.

Take `Cl.Cl.Cl.O=C(Nc1cccc2c1C(=O)c1c-2n[nH]c1-c1ccc(OCCN(CCO)CCO)cc1)NN1CCOCC1` [H]: the “NCI panel MG-MID” value in assay [1] was less than 0.1 µM. Also, the “NCI panel ADR-res” value in assay [2] was greater than 10. Further, in assay [3], the “BrdU 24” value is recorded as less than 1, the “BrdU 48” value is less than 1 and the “BrdU 72” value is less than 1. The “Arrested cell HCT” value in assay [4] is reported as less than 0.1. The “Arrested cell IMR90” value in assay [5] is recorded as greater than 1.0.

As to `CC(C)N1CCN(Cc2cc(-c3[nH]nc4c3C(=O)c3c(NC(=O)NN5CCOCC5)cccc3-4)ccc2O)CC1.Cl.Cl.Cl.Cl` [K], the “NCI panel MG-MID” value in assay [1] was less than 0.1 µM. Also, the “NCI panel ADR-res” value in assay [2] is reported as less than 10. In addition, in assay [3], the “BrdU 24” value is less than 0.1, the “BrdU 48” value is given as less than 0.1 and the “BrdU 72” value is given as less than 0.1. In addition, the “Arrested cell HCT” value in assay [4] is recorded as less than 0.01. The “Arrested cell IMR90” value in assay [5] is given as greater than 1.0.

In the case of `CN1CCN(NC(=O)Nc2cccc3c2C(=O)c2c-3n[nH]c2-c2ccc(OCCN3CCOCC3)cc2)CC1.Cl.Cl` [Q], the “NCI panel MG-MID” value in assay [1] was less than 0.1 µM. Further, the “NCI panel ADR-res” value in assay [2] is given as less than 10. Moreover, in assay [3], the “BrdU 24” value was less than 0.1, the “BrdU 48” value is listed as less than 0.1 and the “BrdU 72” value is listed as less than 0.1. Besides, the “Arrested cell HCT” value in assay [4] was less than 0.1. The “Arrested cell IMR90” value in assay [5] is reported as greater than 0.1.
